Active and inactive are the calls of the source. No cut-off for these calls is given here.
Legend:
MDA-MB-435 [1] = assay: Cytotoxicity against human MDA-MB-435 cells assessed as growth inhibition after 48 hrs by MTT assay; format: functional, cell-based; conditions: MDA-MB-435, 48 h
HepG2 [2] = assay: Cytotoxicity against human HepG2 cells assessed as growth inhibition after 48 hrs by MTT assay; format: functional, cell-based; conditions: HepG2, 48 h
HCT-116 [3] = assay: Cytotoxicity against human HCT116 cells assessed as growth inhibition after 48 hrs by MTT assay; format: functional, cell-based; conditions: HCT-116, 48 h
NCI-H460 [4] = assay: Cytotoxicity against human NCI-H460 cells assessed as growth inhibition after 48 hrs by MTT assay; format: functional, cell-based; conditions: NCI-H460, 48 h
MCF-10A = assay: Cytotoxicity against human MCF10A cells assessed as growth inhibition after 48 hrs by MTT assay; format: cell-based
MDA-MB-435 [5] = assay: Cytotoxicity against human MDA-MB-435 cells assessed as growth inhibition at 50 uM after 48 hrs by MTT assay; format: functional, cell-based
HepG2 [6] = assay: Cytotoxicity against human HepG2 cells assessed as growth inhibition at 50 uM after 48 hrs by MTT assay; format: functional, cell-based
HCT-116 [7] = assay: Cytotoxicity against human HCT116 cells assessed as growth inhibition at 50 uM after 48 hrs by MTT assay; format: functional, cell-based
NCI-H460 [8] = assay: Cytotoxicity against human NCI-H460 cells assessed as growth inhibition at 50 uM after 48 hrs by MTT assay; format: functional, cell-based

Structure (SMILES)	IC50 (MDA-MB-435 [1]) [µM]	IC50 (HepG2 [2]) [µM]	IC50 (HCT-116 [3]) [µM]	IC50 (NCI-H460 [4]) [µM]	IC50 (MCF-10A) [µM]	growth inhibition (GI) (MDA-MB-435 [5])	growth inhibition (GI) (HepG2 [6])	growth inhibition (GI) (HCT-116 [7])	growth inhibition (GI) (NCI-H460 [8])
O=C1c2cc(O)cc(O)c2CN1CCO	> 50	> 50	> 50	> 50	> 50	inactive	inactive	inactive	inactive
COC(=O)c1cc(OC)c(OC(C)=O)c2oc3cc(C)ncc3c(=O)c12	> 50	> 50	> 50	> 50	> 50	inactive	inactive	inactive	inactive
COC(=O)c1cc(OC)cc2oc3cc(C)ncc3c(=O)c12	> 50	> 50	> 50	> 50	> 50	inactive	inactive	inactive	inactive
O=C(O)CCCCN1Cc2c(O)cc(O)cc2C1=O	> 50	> 50	> 50	> 50	> 50	inactive	inactive	inactive	inactive
COc1cccc2c1C(=O)c1c(O)c3c(c(O)c1C2=O)C[C@@](O)(C(=O)CO)C[C@@H]3O[C@H]1C[C@H](N)[C@@H](O)[C@H](C)O1 [EPIRUBICIN]	0.26	0.32	0.37	0.12	0.13				
COC(=O)c1cc(OC)c(OC)c2oc3cc(C)ncc3c(=O)c12	> 50	> 50	> 50	> 50	> 50	inactive	inactive	inactive	inactive
COC(=O)CCCCN1Cc2c(O)cc(O)cc2C1=O	> 50	> 50	> 50	> 50	> 50	inactive	inactive	inactive	inactive
COC(=O)c1cc(O)cc2oc3cc(CO)ncc3c(=O)c12	> 50	> 50	> 50	> 50	> 50	inactive	inactive	inactive	inactive
COc1cc(O)c2c(c1)C(=O)c1cc(C)ncc1C2=O	5.32	> 50	34.8	6.57	9.31				

— ChEMBL document CHEMBL4002636, “Alkaloids from the mangrove endophytic fungus Diaporthe phaseolorum SKS019” (Bioorg Med Chem Lett, 2017)
